Experimental data reported in PMC12023841, “Unlocking the Gates: A Novel Diagnostic Molecule for Quantifying Efflux Levels in Gram‐Positive Bacteria” (Advanced Healthcare Materials, 2025).
Converted amounts (≈) assume the structure as drawn. Where two headings read alike, the source gives them in different places.

Key:
[1] = tested on: Staphylococcus aureus ATCC 25923 (Reference, basal); experiment: MIC, broth microdilution (CLSI); format: cell-based; settings: ATCC25923
[2] = tested on: SA 1199 (Wild‐type, basal); experiment: MIC, broth microdilution (CLSI); format: cell-based; settings: Staphylococcus aureus
[3] = tested on: SA 1199‐B (norA overexpressing); experiment: microbe, parasite or virus in culture; format: cell-based, Staphylococcus aureus; settings: Staphylococcus aureus
SA‐K1758 (∆norA) = experiment: microbe, parasite or virus in culture; format: cell-based; settings: Staphylococcus aureus
[4] = Solution‐state stability test in MH‐II broth; format: physicochemical; settings: 512–1 µg mL^−1, 37 °C for a day, centrifuged
Experimental: Before accessing the minimal inhibitory concentration (MIC), each phenazinium derivative was subjected to a solution‐state stability test. For this experiment, each derivative was solubilized in DMSO to achieve a primary stock solution (20 mg mL^−1). This stock was further diluted in MilliQ to achieve a working stock solution (10 mg mL^−1). […] The tubes were placed in an incubator at 37 °C for a day and later centrifuged at 25 000 rpm for 25 min.

S. aureus strains [5] = settings: cited from earlier work
S. epidermidis strains = tested on: S. epidermidis strains; design: method as in earlier work; settings: cited from earlier work; further: key: S: Susceptible; R: Resistant; I: Intermediate
S. aureus strains [6] = settings: cited from earlier work; remark: listed apart in the source
Wherever Susceptibility profile is given: key: S: Susceptible; R: Resistant; I: Intermediate.

For `CCCCNc1ccc2nc3cc(NCCC)c(N)cc3[n+](CCCC)c2c1` [5d1], the MIC [1] was 16 µg/mL, the MIC [2] was 16 µg/mL and the MIC [3] was 16 µg/mL. For the same compound, the MIC (SA‐K1758 (∆norA)) was 8 µg/mL and the “Solution state stability (concentration at which visible precipitation was observed)” value (from here on “Solution state stability”) [4] was “Visible precipitation was observed at 128 µg mL^−1 and beyond”.

`CCCCNc1ccc2nc3cc(NCCCC)c(N)cc3[n+](CCCC)c2c1` [5d2] showed an MIC [1] of 1 µg/mL, an MIC [2] of 1 µg/mL and an MIC [3] of 0.5 to 1 µg/mL. For the same compound, the MIC (SA‐K1758 (∆norA)) was 0.5 µg/mL and the “Solution state stability” value [4] was “Visible precipitation was observed at 512 µg mL^−1 and beyond”.

With `CCCCCCCCNc1ccc2nc3cc(NCCC)c(N)cc3[n+](CCCCCCCC)c2c1` [5e1] the MIC [1] was 16 µg/mL, the MIC [2] was 16 µg/mL and the MIC [3] was 16 µg/mL. For the same compound, the MIC (SA‐K1758 (∆norA)) was 8 µg/mL and the “Solution state stability” value [4] was “Visible precipitation was observed at 128 µg mL^−1”.

`CCCCCCCCNc1ccc2nc3cc(NC(C)(C)C)c(N)cc3[n+](CCCCCCCC)c2c1` [5e2] gave an MIC [1] of 8 µg/mL, an MIC [2] of 8 µg/mL and an MIC [3] of 8 µg/mL. For the same compound, the MIC (SA‐K1758 (∆norA)) was 8 µg/mL and the “Solution state stability” value [4] was “Stable”.

Compound `CCCCCCCCNc1ccc2nc3cc(NCCCCCCCC)c(N)cc3[n+](CCCCCCCC)c2c1` [5e3] has an MIC [1] of 32 µg/mL, an MIC [2] of 64 µg/mL and an MIC [3] of 64 µg/mL. The MIC (SA‐K1758 (∆norA)) was 64 µg/mL and the “Solution state stability” value [4] was “Visible precipitation was observed at 128 µg mL^−1”.

For `O=C(O)c1cn(C2CC2)c2cc(N3CCNCC3)c(F)cc2c1=O` [CIP, Ciprofloxacin], the Susceptibility profile (S. aureus strains [5]; strain ATCC25923, ref [4]) is listed as “I”, the Susceptibility profile (S. aureus strains [5]; strain ATCC25923_EtBr, ref [4]) is listed as “I” and the Susceptibility profile (S. aureus strains [5]; strain SA-1199, ref [2]) is listed as “S”. For the same compound, the Susceptibility profile (S. aureus strains [5]; strain SA-1199B, ref [2]) was “R”, the Susceptibility profile (S. aureus strains [5]; strain SA-K1712, ref [3]) was “S” and the Susceptibility profile (S. aureus strains [5]; strain SA-K1748, ref [3]) was “R”. The Susceptibility profile (S. aureus strains [5]; strain SA-K1758, ref [2]) was “S”, the Susceptibility profile (S. aureus strains [5]; strain SA-K2068, ref [3]) was “S” and the Susceptibility profile (S. epidermidis strains) was “I”.

In the case of `CC[n+]1c(-c2ccccc2)c2cc(N)ccc2c2ccc(N)cc21` [EtBrCW, Ethidium bromide], the “Efflux detection method EtBrCW” value (S. aureus strains [6]; strain ATCC25923, ref [4]) is given as “Negative”, the “Efflux detection method EtBrCW” value (S. aureus strains [6]; strain ATCC25923_EtBr, ref [4]) is given as “Positive (isolates were considered positive if they exhibited fluorescence at the highest EtBr concentration tested (> 2.5 mg/L))” and the “Efflux detection method EtBrCW” value (S. aureus strains [6]; strain BIOS-H1, ref [7]) is given as “Negative”. The “Efflux detection method EtBrCW” value (S. aureus strains [6]; strain BIOS-H2, ref [7]) was “Negative”, the “Efflux detection method EtBrCW” value (S. aureus strains [6]; strain BIOS-H3, ref [7]) was “Negative” and the “Efflux detection method EtBrCW” value (S. aureus strains [6]; strain BIOS-H5, ref [7]) was “Negative”. For the same compound, the “Efflux detection method EtBrCW” value (S. aureus strains [6]; strain BIOS-H6, ref [7]) was “Negative”, the “Efflux detection method EtBrCW” value (S. aureus strains [6]; strain BIOS-H12, ref [7]) was “Negative” and the “Efflux detection method EtBrCW” value (S. aureus strains [6]; strain BIOS-H13, ref [7]) was “Negative”. The “Efflux detection method EtBrCW” value (S. aureus strains [6]; strain BIOS-H17, ref [7]) was “Negative”, the “Efflux detection method EtBrCW” value (S. aureus strains [6]; strain BIOS-H20, ref [7]) was “Negative” and the “Efflux detection method EtBrCW” value (S. aureus strains [6]; strain BIOS-H21, ref [7]) was “Negative”. For the same compound, the “Efflux detection method EtBrCW” value (S. aureus strains [6]; strain BIOS-H22, ref [7]) was “Negative”, the “Efflux detection method EtBrCW” value (S. aureus strains [6]; strain BIOS-H25, ref [7]) was “Negative” and the “Efflux detection method EtBrCW” value (S. aureus strains [6]; strain BIOS-H28, ref [7]) was “Negative”. The “Efflux detection method EtBrCW” value (S. aureus strains [6]; strain BIOS-H29, ref [7]) was “Negative”, the “Efflux detection method EtBrCW” value (S. aureus strains [6]; strain BIOS-H30, ref [7]) was “Negative” and the “Efflux detection method EtBrCW” value (S. aureus strains [6]; strain BIOS-H32, ref [7]) was “Negative”. For the same compound, the “Efflux detection method EtBrCW” value (S. aureus strains [6]; strain BIOS-V21, ref [8]) was “Negative”, the “Efflux detection method EtBrCW” value (S. aureus strains [6]; strain BIOS-V31, ref [8]) was “Negative” and the “Efflux detection method EtBrCW” value (S. aureus strains [6]; strain BIOS-V60, ref [8]) was “Negative”. For the same compound, the “Efflux detection method EtBrCW” value (S. aureus strains [6]; strain BIOS-V61, ref [8]) was “Negative”, the “Efflux detection method EtBrCW” value (S. aureus strains [6]; strain BIOS-V62, ref [8]) was “Negative” and the “Efflux detection method EtBrCW” value (S. aureus strains [6]; strain BIOS-V74, ref [8]) was “Negative”. The “Efflux detection method EtBrCW” value (S. aureus strains [6]; strain BIOS-V75, ref [8]) was “Negative”, the “Efflux detection method EtBrCW” value (S. aureus strains [6]; strain BIOS-V85, ref [8]) was “Negative” and the “Efflux detection method EtBrCW” value (S. aureus strains [6]; strain BIOS-V118, ref [8]) was “Negative”. The “Efflux detection method EtBrCW” value (S. aureus strains [6]; strain BIOS-V128, ref [8]) was “Negative”, the “Efflux detection method EtBrCW” value (S. aureus strains [6]; strain BIOS-V147, ref [8]) was “Negative” and the “Efflux detection method EtBrCW” value (S. aureus strains [6]; strain BIOS-V151, ref [8]) was “Negative”. The “Efflux detection method EtBrCW” value (S. aureus strains [6]; strain BIOS-V156, ref [8]) was “Negative”, the “Efflux detection method EtBrCW” value (S. aureus strains [6]; strain BIOS-V157, ref [8]) was “Negative” and the “Efflux detection method EtBrCW” value (S. aureus strains [6]; strain BIOS-V158, ref [8]) was “Negative”. The “Efflux detection method EtBrCW” value (S. aureus strains [6]; strain BIOS-V203, ref [8]) was “Negative”, the “Efflux detection method EtBrCW” value (S. aureus strains [6]; strain BIOS-V245, ref [8]) was “Negative” and the “Efflux detection method EtBrCW” value (S. aureus strains [6]; strain BIOS-V250, ref [8]) was “Negative”. The “Efflux detection method EtBrCW” value (S. aureus strains [6]; strain BIOS-V257, ref [8]) was “Negative”, the “Efflux detection method EtBrCW” value (S. aureus strains [6]; strain BIOS-V279, ref [8]) was “Negative” and the “Efflux detection method EtBrCW” value (S. aureus strains [6]; strain BIOS-V295, ref [8]) was “Negative”. For the same compound, the “Efflux detection method EtBrCW” value (S. aureus strains [6]; strain SA-1199, ref [2]) was “Negative”, the “Efflux detection method EtBrCW” value (S. aureus strains [6]; strain SA-1199B, ref [2]) was “Positive (isolates were considered positive if they exhibited fluorescence at the highest EtBr concentration tested (> 2.5 mg/L))” and the “Efflux detection method EtBrCW” value (S. aureus strains [6]; strain SA-K1748, ref [3]) was “Positive (isolates were considered positive if they exhibited fluorescence at the highest EtBr concentration tested (> 2.5 mg/L))”. The “Efflux detection method EtBrCW” value (S. aureus strains [6]; strain SA-K1758, ref [2]) was “Negative”, the “Efflux detection method EtBrCW” value (S. aureus strains [6]; strain SM 1, ref [6]) was “Positive (isolates were considered positive if they exhibited fluorescence at the highest EtBr concentration tested (> 2.5 mg/L))” and the “Efflux detection method EtBrCW” value (S. aureus strains [6]; strain SM 2, ref [6]) was “Negative^* (Isolates marked with (*) displayed fluorescence at intermediate EtBr concentrations (1–2 mg/L))”. The “Efflux detection method EtBrCW” value (S. aureus strains [6]; strain SM 3, ref [6]) was “Negative^* (Isolates marked with (*) displayed fluorescence at intermediate EtBr concentrations (1–2 mg/L))”, the “Efflux detection method EtBrCW” value (S. aureus strains [6]; strain SM 4, ref [6]) was “Negative” and the “Efflux detection method EtBrCW” value (S. aureus strains [6]; strain SM 5, ref [6]) was “Negative”. The “Efflux detection method EtBrCW” value (S. aureus strains [6]; strain SM 6, ref [6]) was “Negative”, the “Efflux detection method EtBrCW” value (S. aureus strains [6]; strain SM 7, ref [6]) was “Negative” and the “Efflux detection method EtBrCW” value (S. aureus strains [6]; strain SM 8, ref [6]) was “Negative^* (Isolates marked with (*) displayed fluorescence at intermediate EtBr concentrations (1–2 mg/L))”.

For `CCn1cc(C(=O)O)c(=O)c2cc(F)c(N3CCNCC3)cc21` [NOR, norfloxacin, reference compound], the MIC [1] was 2 µg/mL (≈ 6.26 µM), the MIC ([2]; SA 1199 (Wild‐type, basal), read-out: MIC) was 2 µg/mL (≈ 6.26 µM) and the MIC [3] was 32 µg/mL (≈ 100 µM). The MIC (SA‐K1758 (∆norA)) was 0.25 µg/mL (≈ 0.783 µM).
